The molecules below were run against T1, human lung fibroblast collagenase (Homo sapiens, UniProt P03956) (assay: Collagenase inhibitor assay (degradation of 3H-acetylated rat skin type I collagen)). Settings: collagenase purified from WI-38 culture supernatants; 3H-acetylated rat skin type I collagen substrate; 5 min pre-incubation, 37° C. overnight; β-mercaptoethanol may be incorporated; read-out: IC50 (50% inhibitory concentration), inhibition of human lung fibroblast collagenase.
T1 construct: purified from culture supernatants from the human lung fibroblast cell line, WI-38; endogenous in cells; host or cells: WI-38 (human lung fibroblast cell line), culture supernatant, purified
T1 sequence (P03956 100-469): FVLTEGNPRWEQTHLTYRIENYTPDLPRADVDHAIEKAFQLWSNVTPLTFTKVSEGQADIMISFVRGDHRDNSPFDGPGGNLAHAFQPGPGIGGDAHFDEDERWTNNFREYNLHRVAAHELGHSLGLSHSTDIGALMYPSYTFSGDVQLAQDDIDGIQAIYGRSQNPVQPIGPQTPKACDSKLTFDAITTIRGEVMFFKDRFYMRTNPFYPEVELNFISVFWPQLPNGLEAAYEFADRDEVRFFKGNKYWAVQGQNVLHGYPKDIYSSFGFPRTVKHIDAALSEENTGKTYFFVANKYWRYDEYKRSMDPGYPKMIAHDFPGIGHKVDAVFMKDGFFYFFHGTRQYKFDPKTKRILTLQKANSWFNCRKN
Type: biochemical
Procedure: The test is performed essentially as in Cawston and Barrett, Anal. Biochem. 99, 340-345 (1979). Compounds for testing are dissolved in methanol by sonication and added to collagenase (purified from culture supernatants from the human lung fibroblast cell line, WI-38) in buffer. To ensure that thiol collagenase inhibitors remain unoxidised, β-mercaptoethanol may be incorporated in the methanol solvent and/or the diluent buffers to give a final concentration of 9.6×10-^5 M. The minimal direct effect of β-mercaptoethanol on the degradation of collagen by human collagenase is controlled for. After a 5 min pre-incubation at 37° C., the assay tubes are cooled to 4° C. and ^3 H-acetylated rat skin type I collagen is added. The assay tubes are incubated at 37° C. overnight. The ^3 H-collagen forms insoluble fibrils, which are the substrate for the enzyme.
To terminate the assay, the assay tubes are spun at 12000 rpm for 15 min. Undigested ^3 H-collagen is pelleted, while digested ^3 H-collagen is found as soluble peptides in the supernatant. A sample of the supernatant is taken for liquid scintillation counting.
The activity of collagenase inhibitors (IC50 :50% inhibitory concentration) is expressed as that concentration of compound that inhibits a known (standard) concentration of enzyme by 50%.

| IC50 [nM] | SMILES |
| --- | --- |
| 15 | CC(C)CC(C(=O)NC1CCCCCCCCCCNC1=O)C(S)CC(=O)OC(C)C (stereo not drawn) [Example E4A] |
| 2.7 | COC(=O)CC(S)C(CC(C)C)C(=O)NC1CCCCCCCCCCNC1=O (single isomer, unassigned) [Example E2A, 3-mercapto-6-methyl-4-[(2-oxoazacyclotridec-3-yl)aminocarbonyl]heptanoic acid, methyl ester] |
| 74.5 | CC(C)CC(C(=O)NC1CCCCCCCCCCNC1=O)C(S)CC(=O)O (single isomer, unassigned) [Example E3A, 3-Mercapto-6-methyl-4-[(2-oxoazacyclotridec-3-yl)aminocarbonyl]heptanoic acid] |

From patent publication US5190937A, “Lactam derivatives” (Beecham Group p.l.c., priority 1990, dated 1993)
